Key:
hTLR7 [1] = biological target: T1, hTLR7 (Homo sapiens, UniProt Q9NYK1); assay: IL-8 production in 293 fibroblasts transiently expressing hTLR7; type: cell-based; details: CpG-ODN 2 μM, LPS 100 ng/ml
T1 construct: plasmids (pcDNA3.1 constructs) coding for full length hTLR2, hTLR7, hTLR8 and hTLR9; expressed in transfected cells; host or cells: 293T cells
T1 sequence (Q9NYK1 27-1049): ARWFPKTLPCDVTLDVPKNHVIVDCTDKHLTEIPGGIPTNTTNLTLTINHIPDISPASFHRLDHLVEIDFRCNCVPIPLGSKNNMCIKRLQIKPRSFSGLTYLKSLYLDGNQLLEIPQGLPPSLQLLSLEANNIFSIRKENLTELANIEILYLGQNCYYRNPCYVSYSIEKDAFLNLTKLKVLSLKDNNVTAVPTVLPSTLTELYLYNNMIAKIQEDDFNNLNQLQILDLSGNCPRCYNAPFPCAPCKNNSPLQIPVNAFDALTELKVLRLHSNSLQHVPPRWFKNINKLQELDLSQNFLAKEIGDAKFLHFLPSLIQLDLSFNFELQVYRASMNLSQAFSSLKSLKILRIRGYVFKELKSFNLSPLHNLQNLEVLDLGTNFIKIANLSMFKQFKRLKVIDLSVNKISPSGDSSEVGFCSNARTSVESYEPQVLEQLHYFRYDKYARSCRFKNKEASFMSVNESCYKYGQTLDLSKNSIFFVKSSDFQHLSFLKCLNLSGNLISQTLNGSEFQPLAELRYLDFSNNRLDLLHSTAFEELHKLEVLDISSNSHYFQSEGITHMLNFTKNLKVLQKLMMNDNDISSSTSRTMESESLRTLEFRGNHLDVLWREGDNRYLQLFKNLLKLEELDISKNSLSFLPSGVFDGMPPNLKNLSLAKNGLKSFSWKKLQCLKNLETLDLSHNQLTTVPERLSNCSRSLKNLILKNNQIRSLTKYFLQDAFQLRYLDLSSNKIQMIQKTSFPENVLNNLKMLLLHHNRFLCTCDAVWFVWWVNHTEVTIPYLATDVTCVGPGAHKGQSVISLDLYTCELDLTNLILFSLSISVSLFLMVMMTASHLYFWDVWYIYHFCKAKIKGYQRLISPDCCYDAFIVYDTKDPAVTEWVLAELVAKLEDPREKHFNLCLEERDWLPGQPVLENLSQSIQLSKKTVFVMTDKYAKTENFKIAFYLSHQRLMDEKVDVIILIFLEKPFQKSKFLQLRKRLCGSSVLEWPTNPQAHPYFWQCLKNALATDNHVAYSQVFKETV
Procedure: (§1) The cloned human TLR7 and human TLR8 cDNA were cloned into the expression vector pCDNA3. 1 (−) from Invitrogen using the NotI site. Utilizing a “gain of function” assay, hTLR7 and hTLR8 expression vectors were transiently expressed in human 293 fibroblasts (ATCC, CRL-1573) using the calcium phosphate method. Activation was monitored by IL-8 production after stimulus with CpG-ODN (2006 or 1668, 2 μM) or LPS (100 ng/ml).

hTLR8 [2] = biological target: T2, hTLR8 (Homo sapiens, UniProt Q9NR97); assay: IL-8 production in 293 fibroblasts transiently expressing hTLR8; type: cell-based; details: CpG-ODN 2 μM, LPS 100 ng/ml
T2 construct: plasmids (pcDNA3.1 constructs) coding for full length hTLR2, hTLR7, hTLR8 and hTLR9; expressed in transfected cells; host or cells: 293T cells
T2 sequence (Q9NR97 27-1041): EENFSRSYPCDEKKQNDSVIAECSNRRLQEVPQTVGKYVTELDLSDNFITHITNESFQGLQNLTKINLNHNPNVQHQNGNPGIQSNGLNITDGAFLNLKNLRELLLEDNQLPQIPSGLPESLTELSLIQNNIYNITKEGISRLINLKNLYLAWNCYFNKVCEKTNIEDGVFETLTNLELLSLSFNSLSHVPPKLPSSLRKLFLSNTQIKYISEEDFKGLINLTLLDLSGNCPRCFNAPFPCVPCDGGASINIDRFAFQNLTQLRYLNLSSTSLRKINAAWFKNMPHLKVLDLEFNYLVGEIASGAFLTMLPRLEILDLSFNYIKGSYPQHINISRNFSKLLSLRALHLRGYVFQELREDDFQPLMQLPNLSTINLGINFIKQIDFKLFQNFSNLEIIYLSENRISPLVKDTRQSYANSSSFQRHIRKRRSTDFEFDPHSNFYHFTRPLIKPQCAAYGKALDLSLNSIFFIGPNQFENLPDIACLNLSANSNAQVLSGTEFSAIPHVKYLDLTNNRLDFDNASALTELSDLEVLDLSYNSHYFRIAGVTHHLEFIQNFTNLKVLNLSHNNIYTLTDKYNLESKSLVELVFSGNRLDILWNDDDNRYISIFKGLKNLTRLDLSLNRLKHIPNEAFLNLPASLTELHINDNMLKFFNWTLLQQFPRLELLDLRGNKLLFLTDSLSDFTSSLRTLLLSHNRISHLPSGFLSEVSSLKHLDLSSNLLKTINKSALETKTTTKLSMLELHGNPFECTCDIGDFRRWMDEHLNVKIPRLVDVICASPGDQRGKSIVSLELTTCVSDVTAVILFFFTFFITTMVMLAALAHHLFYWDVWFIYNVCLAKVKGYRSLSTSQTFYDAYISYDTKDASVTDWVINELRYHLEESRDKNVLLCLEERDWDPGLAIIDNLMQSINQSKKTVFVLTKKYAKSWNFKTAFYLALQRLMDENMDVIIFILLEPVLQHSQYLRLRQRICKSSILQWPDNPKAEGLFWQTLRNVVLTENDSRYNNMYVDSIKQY
Procedure: as §1

hTLR7 [3] = biological target: T1, hTLR7; assay: NF-kappa B luciferase activation in 293T cells transiently transfected with hTLR7; type: cell-based; details: hTLR7-transfected 293T cells
Procedure: (§2) Cells used for transfections were 293T (human embryo kidney cells, T-antigen transfected) or 293-TLR9-Luc (stable transfectants, human embryo kidney cells expressing the human TLR9 receptor and containing a genomic NF-kappa B-luciferase cassette).
(§3) Transfections were performed in six-well plates. Cells were plated the day before transfection at 4×10^5/well in DMEM+10% FCS.
(§4) Constructs: TLR cDNAs were cloned into pcDNA3.1. NF-kappa B activation was measured by using an 5× NF-kappa B-Luciferase construct (Stratagene). Transfection efficiency was determined by using a beta-galactosidase (beta-gal) reporter construct (p beta-Gal-Control, Clontech).
(§5) Stimulation was performed 24 h after transfection. Medium of the cells was reduced to 1 ml (without medium change) and cells were stimulated with indicated amounts of R-848, LPS, ODN 8954, 2006 and IL-1 beta for 16 h.
(§6) Cell extracts were prepared by lysing the cells in 100 μl reporter lysis buffer using the freeze-thaw method. NF-kappa B stimulation was measured through luciferase activity (Promega). All data were normalized for beta-gal expression. Stimulation indices were calculated in reference to luciferase activity of medium without addition of ODN.
(§7) 293T cells, stably transfected with a NF-kappa B-luciferase reporter construct, were transiently transfected with plasmids (pcDNA3.1 constructs) coding for full length hTLR2, hTLR7, hTLR8 and hTLR9. […]

hTLR8 [4] = biological target: T2, hTLR8; assay: NF-kappa B luciferase activation in 293T cells transiently transfected with hTLR8; type: cell-based; details: hTLR8-transfected 293T cells
Procedure: as §2, §3, §4, §5, §6, §7

[5] = system: NF-kappa B luciferase reporter gene; assay: NF-kappa B luciferase reporter in transfected 293T cells, TLR-independent positive control; type: cell-based, human; details: FIG. 2A
Procedure: as §2, §5, §6
293T cells, stably transfected with a NF-kappa B-luciferase reporter construct, were transiently transfected with plasmids (pcDNA3.1 constructs) coding for full length hTLR2, hTLR7, hTLR8 and hTLR9. All transfections were normalized to beta-galactosidase activity. Twenty-four hours following transfection, cells were stimulated with R-848, LPS, CpG ODN 8954 (5′ […] 3′, SEQ ID NO:4), CpG ODN 2006, or IL-1 and then assayed for luciferase activity 16 h after stimulation. Each experiment was done at least twice with similar results.

human PBMC [6] = assay: IP-10 secretion by human PBMC (ELISA); type: cell-based; details: 48 hours, ODN 0.2-3.0 μg/ml versus R-848 0.01-1.0 μg/ml, FIG. 6A
Procedure: (§8) This experiment investigated the induction of the Th1 cytokine IFN-gamma as well as the Th1-related chemokine IP-10 (IFN-gamma inducible protein). Unfractionated human PBMC from three donors were incubated for 48 hours in the presence of varying concentrations of R-848 (0.01-1.0 μg/ml), varying concentrations of CpG ODN 2006 (0.2-3.0 μg/ml), varying concentrations of negative control ODN 5177 (0.2-3.0 μg/ml), SEB (50 ng/ml), or media alone, and then the concentrations of IP-10 and IFN-gamma in the supernatant were measured by ELISA.
In FIG. 6B, the combined effects of R-848 and CpG ODN (e.g., #2006) on IP-10 secretion are shown. Human PBMCs from three different donors were incubated for 48 hours with the indicated concentrations of ODNs and R-848, either individually or together. Supernatants were harvested and IP-10 was measured by ELISA. The data represent mean cytokine amounts.

human PBMC [7] = assay: IFN-gamma secretion by human PBMC (ELISA); type: cell-based; details: 48 hours, compared to R-848, not shown
Procedure: as §8

hTLR2 = biological target: T3, hTLR2 (Homo sapiens, UniProt O60603); assay: NF-kappa B luciferase activation in 293T cells transfected with hTLR2; type: cell-based
T3 construct: plasmids (pcDNA3.1 constructs) coding for full length hTLR2, hTLR7, hTLR8 and hTLR9; expressed in transfected cells; host or cells: 293T cells carrying an NF-kappa B-luciferase reporter
Procedure: as §2, §3, §4, §5, §6, §7

T3 sequence (O60603 21-784): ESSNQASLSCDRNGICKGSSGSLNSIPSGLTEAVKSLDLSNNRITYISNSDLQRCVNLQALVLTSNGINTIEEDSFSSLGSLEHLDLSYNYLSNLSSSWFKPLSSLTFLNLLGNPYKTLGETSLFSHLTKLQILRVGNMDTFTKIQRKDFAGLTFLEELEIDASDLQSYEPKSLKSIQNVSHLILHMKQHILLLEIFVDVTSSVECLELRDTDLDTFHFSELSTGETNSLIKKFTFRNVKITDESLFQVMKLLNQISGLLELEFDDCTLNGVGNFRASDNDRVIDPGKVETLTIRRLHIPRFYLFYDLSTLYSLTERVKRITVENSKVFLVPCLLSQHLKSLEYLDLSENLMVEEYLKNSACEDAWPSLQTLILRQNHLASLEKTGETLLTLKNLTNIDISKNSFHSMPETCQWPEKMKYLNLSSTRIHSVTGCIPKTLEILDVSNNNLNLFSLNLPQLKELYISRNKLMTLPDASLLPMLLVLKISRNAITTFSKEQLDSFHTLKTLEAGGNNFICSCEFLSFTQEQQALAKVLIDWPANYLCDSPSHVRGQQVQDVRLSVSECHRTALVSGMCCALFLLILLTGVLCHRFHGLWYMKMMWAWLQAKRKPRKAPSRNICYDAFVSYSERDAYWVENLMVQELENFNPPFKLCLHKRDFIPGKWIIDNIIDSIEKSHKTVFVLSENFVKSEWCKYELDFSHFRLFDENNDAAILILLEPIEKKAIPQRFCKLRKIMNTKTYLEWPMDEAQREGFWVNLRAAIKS

Row | Substance | activation monitored by IL-8 production (hTLR7 [1]) | activation monitored by IL-8 production (hTLR8 [2]) | NF-kappa B activation through hTLR7 (in words) (hTLR7 [3]) | NF-kappa B activation through hTLR8 (in words) (hTLR8 [4]) | also measured
1 | 1668: CpG-ODN TCCATGACGTTCCTGATGCT, SEQ ID NO:12 (listed as DNA, chemistry not fully specified) [compound 1668] | None of the stimuli used activated | None of the stimuli used activated |  |  | 
2 | CpG ODN 8954: CpG ODN 5′ GGGGACGACGTCGTGGGGGGG 3′, SEQ ID NO:4 (listed as DNA, chemistry not fully specified) |  |  | Neither LPS nor the CpG ODN 8954 appeared to activate | Neither LPS nor the CpG ODN 8954 appeared to activate | 
3 | IL-1: cytokine used as positive control for NF-kappa B activation |  |  |  |  | activation of NF-kappa B luciferase reporter gene (in words) [5]: activated the NF-kappa B luciferase reporter gene in a TLR-independent manner
4 | ODN 5177: negative control ODN 5′ TCCGCCTGTGACATGCATT 3′; SEQ ID NO:5 (listed as DNA, chemistry not fully specified) |  |  |  |  | IP-10 induction (human PBMC [6]): but not the negative control ODN 5177 induced similar amounts of IP-10; IFN-gamma induction (human PBMC [7]): The same result was obtained
5 | lipopolysaccharide [LPS] | None of the stimuli used activated | None of the stimuli used activated | Neither LPS nor the CpG ODN 8954 appeared to activate | Neither LPS nor the CpG ODN 8954 appeared to activate | NF-kappa B activation through hTLR2 (in words) (hTLR2): activated by LPS

Source: patent publication US20060188913A1, “Methods and products for enhancing immune responses using imidazoquinoline compounds” (University of Iowa Research Foundation, priority 2001, published 2006)
